Values of other authors, collected in paper PMC12525602, “Identification of Selective α-Glucosidase Inhibitors via Virtual Screening with Machine Learning” (Molecules, 2025).

system: α-glucosidase; settings: 300-compound dataset of reported inhibitors and ineffective compounds, Table S4; cited from earlier work

Row | SMILES | activity (label in modeling dataset)
1 | COc1ccc(S(=O)(=O)NNC(=O)c2cc3cc(F)ccc3[nH]2)cc1OC [compound 3, FC1=CC=C(NC(C(NNS(=O)(C2=CC(OC)=C(OC)C=C2)=O)=O)=C3)C3=C1] | 0
2 | C[C@@H]1O[C@@H](Oc2cc(O)c3c(=O)c(O[C@@H]4O[C@@H](C)[C@H](O)[C@@H](O)[C@H]4O)c(-c4ccc(O)cc4)oc3c2)[C@H](O)[C@H](O)[C@H]1O [compound 0, C[C@H]1[C@H](O)[C@@H](O)[C@@H](O)[C@H](OC2=CC(O)=C3C(OC(C4=CC=C(O)C=C4)=C(O[C@H]5[C@H](O)[C@H](O)[C@@H](O)[C@H](C)O5)C3=O)=C2)O1] | 0
3 | COc1cc(-c2oc3cc(O)cc(O)c3c(=O)c2O[C@@H]2O[C@H](CO[C@@H]3O[C@@H](C)[C@H](O)[C@@H](O)[C@H]3O)[C@@H](O)[C@H](O)[C@H]2O)ccc1O [compound 2, C[C@H]1[C@H](O)[C@@H](O)[C@@H](O)[C@H](OC[C@@H]2[C@@H](O)[C@H](O)[C@@H](O)[C@H](OC3=C(C4=CC(OC)=C(O)C=C4)OC5=CC(O)=CC(O)=C5C3=O)O2)O1] | 0

same assay, conditions: Table S5 modeling dataset; activity label 1 = active, 0 = inactive; cited from earlier work

Row | SMILES | activity
4 | O=C(c1ccccc1)c1ccc2nc(-c3ccc(F)cc3)[nH]c2c1 [compound 95] | 0
5 | N#Cc1c(-c2ccncc2)cc(-c2ccc(Cl)cc2)c(C#N)c1N [compound 113] | 0
6 | CC(C)=CCC1(O)C(O)=C(C(=O)CC(C)C)C(=O)C1(O)C(=O)C=C(C)C (stereo not shown) [compound 130] | 0
7 | CC1CCCN(c2ccc(/C=N/Nc3nc(-c4ccc(C#N)cc4)cs3)cc2)C1 (stereo not shown) [compound 106] | 0
8 | COc1cccc(C(=O)C2C(O)c3ccccc3S(=O)(=O)N2CC(=O)Nc2cccc(Br)c2)c1 (stereo not shown) [compound 118] | 0
9 | CC1(C)CC[C@]2(C(=O)O)CC[C@]3(C)C(=CC[C@@H]4[C@@]5(C)CC[C@H](O)C(C)(C)[C@@H]5CC[C@]43C)[C@@H]2C1 [compound 126] | 0
10 | N#Cc1ccc(S(=O)(=O)NNC(=O)c2cc3cc(F)ccc3[nH]2)cc1 [compound 122] | 0
11 | Fc1ccc(CSc2nnc(COc3cccc4cccnc34)o2)cc1 [compound 128] | 0
12 | CC1CCCN(c2ccc(/C=N/Nc3nc(-c4ccc(O)c(O)c4)cs3)cc2)C1 (stereo not shown) [compound 93] | 0
13 | N#Cc1c(-c2ccc(Cl)cc2)cc(-c2ccc(Cl)cc2)c(C#N)c1N [compound 131] | 0
14 | O=C(NNS(=O)(=O)c1ccc(OC(F)(F)F)cc1)c1cc2cc(F)ccc2[nH]1 [compound 94] | 0

same assay, conditions: activity label in the 300-compound modeling dataset (Table S5); 1 = active, 0 = inactive; cited from earlier work

Row | SMILES | activity
15 | Nc1ccc(CCC(=O)N2CC[C@@H](O)[C@@H](O)C2)cc1 [compound 190] | 1
16 | O=C1CC(c2ccc(O)cc2)Oc2cc(O)cc(O)c21 (stereo not shown) [compound 211] | 1
17 | COc1cccc(C(=O)C2C(O)c3ccccc3S(=O)(=O)N2CC(=O)Nc2ccc(Br)cc2)c1 (stereo not shown) [compound 202] | 1
18 | COc1ccc([C@@H]2CC(=O)c3c(O)cc(O[C@@H]4O[C@H](CO[C@@H]5O[C@@H](C)[C@H](O)[C@@H](O)[C@H]5O)[C@@H](O)[C@H](O)[C@H]4O)cc3O2)cc1O [compound 185] | 1
19 | CCCCCCCCCCCCCCCC(N)=O [compound 188] | 1
20 | Cc1ccc(-c2cc(C(F)(F)F)nn2-c2ccc(S(=O)(=O)NC(=O)c3ccc(Br)cc3)cc2)cc1 [compound 208] | 1
21 | COc1ccc(Br)cc1-c1nnc(/N=C(/CSc2nnc3c(n2)[nH]c2ccccc23)c2ccccc2[N+](=O)[O-])s1 [compound 199] | 1

same assay, conditions: activity label of the 300-compound modeling dataset, Table S5; cited from earlier work

Row | SMILES | activity
22 | COc1cc(/C=N/N=C2\C(=O)Nc3ccccc32)ccc1OCc1cn(Cc2ccc(C)cc2)nn1 [compound 253] | 1
23 | c1ccc(-c2cnc3ccccc3n2)cc1 [compound 278] | 1
24 | O=C(/C=C/c1ccc(Cl)cc1)c1cc2ccccc2oc1=O [compound 273] | 1
25 | CN(C)c1ccc(/C=N/CCc2ccc(O)cc2)cc1 [compound 258] | 1
26 | O=C1CC(/C=N/Nc2ccc(F)cc2)Oc2ccccc21 (stereo not shown) [compound 235] | 1
27 | Cc1ccc(C(=O)COc2c(I)cc(Cl)c3cccnc23)cc1 [compound 238] | 1
28 | Oc1cc(O)cc(-c2cc3cccc(Br)c3o2)c1 [compound 232] | 1
29 | COc1ccccc1/C(CSc1nnc2c(n1)[nH]c1ccccc12)=N\c1nnc(-c2ccc(Cl)c(Cl)c2)s1 [compound 243] | 1
30 | O=C(/C=C/c1ccc(O)c(O)c1)c1cccc2[nH]c(=O)oc12 [compound 274] | 1
31 | CC(C)(C)c1ccc(N/N=C/C2CC(=O)c3ccccc3O2)cc1 (stereo not shown) [compound 234] | 1

same assay, conditions: activity label of the modeling dataset (Table S5), α-glucosidase; 1 = active, 0 = inactive; cited from earlier work

Row | SMILES | activity
32 | COc1ccc(S(=O)(=O)NNC(=O)c2cc3cc(F)ccc3[nH]2)cc1OC [compound 3, FC1=CC=C(NC(C(NNS(=O)(C2=CC(OC)=C(OC)C=C2)=O)=O)=C3)C3=C1] | 0
33 | N#Cc1c(-c2ccncc2)cc(-c2cccnc2)c(C#N)c1N [compound 25] | 0
34 | O=C(c1ccccc1)c1ccc2nc(-c3ccc(Br)cc3)[nH]c2c1 [compound 8] | 0
35 | C[C@@H]1O[C@@H](Oc2cc(O)c3c(=O)c(O[C@@H]4O[C@@H](C)[C@H](O)[C@@H](O)[C@H]4O)c(-c4ccc(O)cc4)oc3c2)[C@H](O)[C@H](O)[C@H]1O [compound 0, C[C@H]1[C@H](O)[C@@H](O)[C@@H](O)[C@H](OC2=CC(O)=C3C(OC(C4=CC=C(O)C=C4)=C(O[C@H]5[C@H](O)[C@H](O)[C@@H](O)[C@H](C)O5)C3=O)=C2)O1] | 0
36 | N#Cc1c(-c2cccnc2)cc(-c2ccccn2)c(C#N)c1N [compound 42] | 0
37 | N#Cc1c(-c2ccc(Cl)cc2)cc(-c2ccco2)c(C#N)c1N [compound 24] | 0
38 | Cc1ccc(-c2cc(-c3ccncc3)c(C#N)c(N)c2C#N)cc1 [compound 35] | 0
39 | N#Cc1c(-c2ccc(-c3ccccc3)cc2)cc(-c2ccc([N+](=O)[O-])cc2)c(C#N)c1N [compound 10] | 0
40 | COc1cc(-c2oc3cc(O)cc(O)c3c(=O)c2O[C@@H]2O[C@H](CO[C@@H]3O[C@@H](C)[C@H](O)[C@@H](O)[C@H]3O)[C@@H](O)[C@H](O)[C@H]2O)ccc1O [compound 2, C[C@H]1[C@H](O)[C@@H](O)[C@@H](O)[C@H](OC[C@@H]2[C@@H](O)[C@H](O)[C@@H](O)[C@H](OC3=C(C4=CC(OC)=C(O)C=C4)OC5=CC(O)=CC(O)=C5C3=O)O2)O1] | 0
41 | O=C(c1ccccc1)c1ccc2nc(-c3ccc(O)cc3O)[nH]c2c1 [compound 9] | 0
42 | N#Cc1c(-c2cccnc2)cc(-c2ccco2)c(C#N)c1N [compound 19] | 0
43 | N[C@@H](Cc1ccccc1)C(=O)O [compound 39] | 0
44 | N#Cc1c(-c2cccc(Cl)c2)cc(-c2ccco2)c(C#N)c1N [compound 7] | 0
45 | CC1CCN(c2ccc(/C=N/Nc3nc(-c4ccc(C#N)cc4)cs3)cc2)CC1 [compound 22] | 0

same assay, conditions: activity label of the modeling dataset, Table S5 (1 = active, 0 = inactive); cited from earlier work

Row | SMILES | activity
46 | c1ccc(Cn2cc(CSc3nnc(COc4cccc5cccnc45)o3)nn2)cc1 [compound 54] | 0
47 | CCCCCn1cc(CSc2nnc(COc3cccc4cccnc34)o2)nn1 [compound 82] | 0
48 | N#Cc1c(-c2ccc([N+](=O)[O-])cc2)cc(-c2cccnc2)c(C#N)c1N [compound 75] | 0
49 | CC(C)CCC(=O)C1(O)C(O)=C(C(=O)CC(C)C)C(=O)C1CCC(C)C (stereo not shown) [compound 66] | 0
50 | Clc1ccc(Cn2cc(CSc3nnc(COc4cccc5cccnc45)o3)nn2)c(Cl)c1 [compound 61] | 0
51 | CC1CCN(c2ccc(/C=N/Nc3nc(-c4ccc([N+](=O)[O-])cc4)cs3)cc2)CC1 [compound 67] | 0
52 | CC1CCN(c2ccc(/C=N/Nc3nc(-c4ccc(F)cc4F)cs3)cc2)CC1 [compound 84] | 0
53 | Fc1ccc(CSc2nnc(COc3cccc4cccnc34)o2)cc1F [compound 80] | 0
54 | CC1OC(Oc2cc(-c3oc4cc(O)cc(O)c4c(=O)c3O)cc(O)c2O)C(O)C(O)C1O (stereo not shown) [compound 76] | 0
55 | BrCCSc1nnc(COc2cccc3cccnc23)o1 [compound 57] | 0
56 | N#Cc1c(-c2cccc(Cl)c2)cc(-c2cccc([N+](=O)[O-])c2)c(C#N)c1N [compound 50] | 0
57 | Cc1ccc(S(=O)(=O)NNC(=O)c2cc3cc(F)ccc3[nH]2)cc1 [compound 53] | 0
58 | O=[N+]([O-])c1ccc(-n2cc(CSc3nnc(COc4cccc5cccnc45)o3)nn2)cc1 [compound 72] | 0
59 | CCCCCCn1cc(CSc2nnc(COc3cccc4cccnc34)o2)nn1 [compound 77] | 0
60 | O=[N+]([O-])c1ccc(CSc2nnc(COc3cccc4cccnc34)o2)cc1 [compound 89] | 0

same assay, conditions: activity label of the modeling dataset, Table S5; cited from earlier work

Row | SMILES | activity
61 | N#Cc1ccc2[nH]c(-c3nnc(Nc4ccc(F)cc4)s3)cc2c1 [compound 170] | 1
62 | O=c1c(O[C@@H]2O[C@@H](CO)[C@H](O)[C@H]2O)c(-c2ccc(O)c(O)c2)oc2cc(O)cc(O)c12 [compound 139] | 0
63 | CC(C)=CCC1=C(O)C(CC=C(C)C)(CC=C(C)C)C(=O)C(C(=O)CC(C)C)=C1O [compound 163] | 1
64 | CC(C)=CCC1=C(O)[C@@](O)(CC=C(C)C)C(=O)C(C(=O)CC(C)C)=C1O [compound 138] | 0
65 | COc1cccc(C(=O)C2C(O)c3ccccc3S(=O)(=O)N2CC(=O)Nc2ccc(Cl)cc2)c1 (stereo not shown) [compound 178] | 1
66 | CC(C)C1=CC2=CC[C@@H]3[C@](C)(CCC[C@@]3(C)C(=O)O)[C@H]2CC1 [compound 174] | 1
67 | O=C(CCc1ccc(O)cc1)c1c(O)cc(O[C@@H]2O[C@H](CO)[C@@H](O)[C@H](O)[C@H]2O)cc1O [compound 155] | 1
68 | COc1cc(Br)ccc1-c1nnc(/N=C(/CSc2nnc3c(n2)[nH]c2ccccc23)c2ccc(Br)cc2Br)s1 [compound 151] | 1
69 | C[C@@H]1O[C@@H](Oc2c(-c3ccc(O)c(O)c3)oc3cc(O)cc(O)c3c2=O)[C@H](O)[C@H](O)[C@H]1O [compound 175] | 1

same assay, conditions: activity label of the modeling dataset, sheet Table S5; 1 = active, 0 = inactive; cited from earlier work

Row | SMILES | activity
70 | CCOC(=O)c1cc(-c2ccc(Br)cc2)n2nc3ccccc3c2n1 [compound 296] | 1
71 | Cn1ccnc1SC(=O)c1ccc(-c2cccc(Cl)c2)o1 [compound 298] | 1
72 | CCOC(=O)c1c(SCC(=O)Nc2ccccc2)nnc(-c2ccccc2)c1-c1ccccc1 [compound 292] | 1
73 | O=[N+]([O-])c1ccc(-c2cnc3ccccc3n2)cc1 [compound 286] | 1
74 | c1ccc(-c2ccc(-c3cnc4ccccc4n3)cc2)cc1 [compound 288] | 1
75 | COC(=O)Cn1c(=O)oc2c(C(=O)/C=C/c3ccc(O)cc3)cccc21 [compound 287] | 1
76 | Clc1ccc(-c2cnc3ccccc3n2)cc1Cl [compound 295] | 1
